Measurements taken from EP0604355B1, “Akyl Substituted heterocyclic compounds” (N[…]/S, priority 1992, dated 1994).
Counter-ions that a name gives are not always drawn.

How the values were obtained:
[1] = tested on: haloperidol-induced catalepsy; assay: animal or person; conditions: Rattus norvegicus, read-out: Minimum effective dose (peroral administration)
Source text: The principle behind the haloperidol catalepsy test relates to the fact that the drug haloperidol (Serenase®) induces a receptor blockade of post synaptic dopamine receptors within the dopamine innervated corpus striatum of the rat brain. Following the blockade of active dopamine neurotransmission of the striatum a state of rigid immobility is induced, during which the rat can be placed in various totally abnormal immobile postures involving the forelegs and the whole body.
The day before testing, the rats weighing 200-250 g are housed 2 and 2 together in standard macrolon cages.
The testing for the immobile catalepsy syndrome includes 4 tests performed in the following consecutive order: • 1) a vertical wire netting (40x40 cm high).The meshes (openings) of the nettings are approximately 1x2cm. • 2) a horizontal bar 9 cm above the floor • 3) a 9 cm high block (bar) • 4) a 3 cm high block (cork)
The rats were scored for the immobile cataleptic syndrome every 15 min in all 4 tests starting 15 min after the haloperidol injection. The intensity of catalepsy was tested during 10 sec in all tests and evaluated according to a criteria of 10 sec of total immobility for a score of 2.
The rat was placed in the middle of the vertical wire netting, then on the horizontal bar in an extended position with support by both the forelegs on the bar. […]

[2] = target: reuptake of dopamine in synaptosomes of rat forebrain (Rattus norvegicus, UniProt P23977); assay: biochemical
Procedure: Fresh whole forebrain (at 0-4°C) from male Wistar rats (150-200 g) is homogenized in a glass homogenizer with a Teflon pestle in 20 x volumes 0.32M sucrose. The homogenate is centrifuged at 1000 x g (∼2900 rpm) for 10 min. The pellet is discarded and the supernatant is used for uptake assays.
The samples are thoroughly mixed and incubated 10 min at 37°C followed by 2 min at 0°C. After incubation the samples are poured directly onto Whatman GF/C glass fibre filters under suction and immediately washed with 2 x 5 ml ice-cold 0.9% saline (NaCl) buffer. To the filter is added 3 ml of scintillation fluid, and the amount of radioactivity on the filters is determined by conventional liquid scintillation counting.

[3] = tested on: dopamine releasing properties; assay: dopamine releasing properties (no method described); conditions: in contrast to Win 35,428 and cocaine

Sequence of reuptake of dopamine in synaptosomes of rat forebrain (P23977 whole entry): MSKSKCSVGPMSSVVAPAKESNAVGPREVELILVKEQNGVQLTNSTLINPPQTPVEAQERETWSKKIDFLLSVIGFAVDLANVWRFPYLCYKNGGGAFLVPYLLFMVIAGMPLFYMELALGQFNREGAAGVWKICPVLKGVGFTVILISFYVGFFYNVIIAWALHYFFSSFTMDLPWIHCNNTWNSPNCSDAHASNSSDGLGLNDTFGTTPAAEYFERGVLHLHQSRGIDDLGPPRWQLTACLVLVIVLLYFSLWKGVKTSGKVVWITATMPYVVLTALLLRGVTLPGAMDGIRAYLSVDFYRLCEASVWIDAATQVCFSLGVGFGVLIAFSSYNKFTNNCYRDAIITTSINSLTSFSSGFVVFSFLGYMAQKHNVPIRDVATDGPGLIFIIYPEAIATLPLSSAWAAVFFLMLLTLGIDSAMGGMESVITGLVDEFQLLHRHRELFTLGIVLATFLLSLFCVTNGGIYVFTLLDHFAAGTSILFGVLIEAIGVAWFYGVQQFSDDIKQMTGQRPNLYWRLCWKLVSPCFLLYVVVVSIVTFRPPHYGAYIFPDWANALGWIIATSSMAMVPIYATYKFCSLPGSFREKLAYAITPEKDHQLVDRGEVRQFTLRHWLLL

SMILES | IC50 [2] | also measured
Cc1noc([C@@H]2[C@@H](c3ccc(Cl)cc3)C[C@@H]3CC[C@H]2N3C)n1.Cl [(1R,2R,3S)-2-(3-Methyl-1,2,4-oxadiazol-5-yl)-3-(4-chlorophenyl)-tropane, hydrochloride] | – | minimal effective dose [1]: > 1 mg/kg
CN1[C@H]2CC[C@@H]1[C@H](c1nc(-c3ccccc3)no1)[C@@H](c1ccc(Cl)cc1)C2 [(1R,2R,3S)-2-(3-Phenyl1,2,4-oxadiazol-5-yl)-3-(4-chlorophenyl)-tropane, hydrochloride] | 0.33 µM | –
CN1[C@H]2CC[C@@H]1[C@H](c1nc(-c3ccccc3)no1)[C@@H](c1ccc3ccccc3c1)C2 [(1R,2R,3S)-2-(3-Phenyl-1,2,4-oxadiazol-5-yl)-3-(2-naphthyl)tropane, hydrochloride] | 0.54 µM | –
Cc1ccc([C@H]2C[C@@H]3CC[C@H]([C@@H]2c2nc(-c4ccccc4)no2)N3C)cc1 [(1R,2R,3S)-2-(3-Phenyl-1,2,4-oxadiazol-5-yl)-3-(4-methylphenyl)-tropane, hydrochloride] | 0.96 µM | –
COC(=O)[C@@H]1[C@@H](c2ccc(F)cc2)C[C@@H]2CC[C@H]1N2C [trans isomer of Win 35,428, (1R,2R,3S)-2-carbomethoxy-3-(4-fluorophenyl)tropane] | – | dopamine releasing properties [3]: essentially free of dopamine releasing properties
